Key:
[1] = system: normal NK cells expanded with K562-aAPC; test: percent inhibition of viability; higher = more inhibition; details: 72 h, IL-2 2.5 ng/mL
Protocol: (§1)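 Drug sensitivity and resistance testing on K562-aAPC-expanded normal NK cells: 5 concentrations (10-fold steps over a 10,000-fold range), 72 h at 37 °C, viability by CellTiter-Glo normalised to DMSO and benzethonium chloride controls; DSS from the fitted curve.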

[2] = system: DERL-7 (IL-2 2.5 ng/mL); test: as above; details: 72 h
[3] = system: IMC-1 (IL-2 20 ng/mL); test: as above; details: 72 h
[4] = system: KAI3 (IL-2 2.5 ng/mL); test: as above; details: 72 h
[5] = system: KHYG-1 (IL-2 2.5 ng/mL); test: as above; details: 72 h
[6] = system: NK-92 (IL-2 2.5 ng/mL); test: as above; details: 72 h
[7] = system: NK-YS (IL-2 2.5 ng/mL); test: as above; details: 72 h
[8] = system: NKL (IL-2 2.5 ng/mL); test: as above; details: 72 h
[9] = system: SNK-6 (IL-2 2.5 ng/mL); test: as above; details: 72 h
[10] = system: YT (IL-2 2.5 ng/mL); test: as above; details: 72 h
[11] = system: normal primary NK cells, pool 1 (3 donors) (IL-2 2.5 ng/mL); test: as above; details: 72 h
[12] = system: normal primary NK cells, pool 1 (3 donors), resting (IL-2 0 ng/mL); test: as above; details: 72 h
[13] = system: normal primary NK cells, pool 2 (3 donors) (IL-2 2.5 ng/mL); test: as above; details: 72 h
[14] = system: normal primary NK cells, pool 3 (3 donors) (IL-2 2.5 ng/mL); test: as above; details: 72 h
[15] = system: normal NK cells expanded with K562-aAPC; test: drug sensitivity score (DSS) (DSS units); higher = more sensitive; extreme values may be limits of the assay; details: 72 h; IL-2 2.5 ng/mL
Protocol: as §1

[16] = system: DERL-7 (IL-2 2.5 ng/mL); test: as above; details: 72 h
[17] = system: IMC-1 (IL-2 20 ng/mL); test: as above; details: 72 h
[18] = system: KAI3 (IL-2 2.5 ng/mL); test: as above; details: 72 h
[19] = system: KHYG-1 (IL-2 2.5 ng/mL); test: as above; details: 72 h
[20] = system: NK-92 (IL-2 2.5 ng/mL); test: as above; details: 72 h
[21] = system: NK-YS (IL-2 2.5 ng/mL); test: as above; details: 72 h
[22] = system: NKL (IL-2 2.5 ng/mL); test: as above; details: 72 h
[23] = system: SNK-6 (IL-2 2.5 ng/mL); test: as above; details: 72 h
[24] = system: YT (IL-2 2.5 ng/mL); test: as above; details: 72 h
[25] = system: normal primary NK cells, pool 1 (3 donors) (IL-2 2.5 ng/mL); test: as above; details: 72 h
[26] = system: normal primary NK cells, pool 1 (3 donors), resting (IL-2 0 ng/mL); test: as above; details: 72 h
[27] = system: normal primary NK cells, pool 2 (3 donors) (IL-2 2.5 ng/mL); test: as above; details: 72 h
[28] = system: normal primary NK cells, pool 3 (3 donors) (IL-2 2.5 ng/mL); test: as above; details: 72 h

O=c1[nH]cc(F)c(=O)[nH]1 [Fluorouracil] (max concentration tested 10000 nM)
percent inhibition of viability [%]
Details | 1 nM | 10 nM | 100 nM | 1000 nM | 10000 nM
[1] | -6.1 | -8.86 | -5.42 | 2.62 | 38.1
[2] | -1.71 | -2.2 | -3.46 | 5.05 | 60.8
[3] | -7.45 | 1.88 | -3.48 | 4.56 | 12.9
[4] | -0.14 | 3.84 | 8.25 | 42.8 | 49.3
[5] | -4.58 | -7.58 | -3.77 | 12.7 | 86.4
[6] | -11.2 | 1.29 | 5.09 | 42.9 | 60
[7] | -1.75 | 0.12 | 4.17 | 40.3 | 84
[8] | -15.3 | -7.36 | -0.39 | 28.1 | 74.8
[9] | -7.99 | -14.1 | -22.8 | 34.2 | 86.7
[10] | -7.37 | -4.14 | -1.13 | 39.8 | 64
[11] | -1.01 | 15.2 | 8.55 | 0.37 | 11.4
[12] | 2.96 | 13.7 | 16.1 | 21.9 | 19
[13] | 1.43 | 2.09 | 10.1 | 5 | 7.54
[14] | -3.48 | 2.62 | 7.34 | 0.65 | 7.07

Details | drug sensitivity score
[15] | 2.24
[16] | 4.1
[17] | 0.36
[18] | 8.77
[19] | 6.91
[20] | 8.76
[21] | 9.4
[22] | 8.01
[23] | 9.4
[24] | 8.28
[25] | 0
[26] | 5.42
[27] | 0
[28] | 0

CC(C)c1cc(-c2n[nH]c(=O)n2-c2ccc3c(ccn3C)c2)c(O)cc1O [Ganetespib] (max concentration tested 1000 nM)
percent inhibition of viability [%]
Details | 0.1 nM | 1 nM | 10 nM | 100 nM | 1000 nM
[1] | -7.81 | -3.48 | 56 | 98.1 | 99.3
[2] | -4.38 | 6.84 | 68.9 | 101 | 101
[3] | -2.6 | -2.72 | -0.68 | 99.7 | 101
[4] | -0.77 | -8.2 | 40.1 | 101 | 107
[5] | 1.44 | 4.41 | 5.54 | 99.7 | 109
[6] | -6.96 | -10.1 | 22.3 | 97.8 | 105
[7] | -2.27 | -6.04 | 33.9 | 101 | 107
[8] | -3.59 | 1.19 | 45.1 | 90 | 92.9
[9] | -23.6 | -15.5 | 5.21 | 86.1 | 88.1
[10] | -3.81 | -4.31 | 1.84 | 93.2 | 99.1
[11] | 1.74 | 4.42 | 62.4 | 86.4 | 86.4
[12] | 2.3 | -0.42 | 39.1 | 41.8 | 52.9
[13] | -4.93 | 1.18 | 65.2 | 77.6 | 79.6
[14] | -14.5 | -11 | 45.4 | 78.5 | 79.9

Details | drug sensitivity score
[15] | 24.6
[16] | 26.6
[17] | 17.9
[18] | 23.3
[19] | 18.7
[20] | 21.4
[21] | 22.8
[22] | 22
[23] | 16.5
[24] | 17.1
[25] | 23.5
[26] | 14.4
[27] | 22.3
[28] | 20.1

CN(C)C1CCN(C(=O)c2ccc(NC(=O)Nc3ccc(-c4nc(N5CCOCC5)nc(N5CCOCC5)n4)cc3)cc2)CC1 [Gedatolisib] (max concentration tested 1000 nM)
percent inhibition of viability [%]
Details | 0.1 nM | 1 nM | 10 nM | 100 nM | 1000 nM
[1] | -0.13 | 7.4 | 1.57 | 11 | 38
[2] | -6.47 | 3.75 | 20.5 | 81.6 | 96.8
[3] | 1.19 | 4.03 | -1.18 | -2.3 | 34.8
[4] | -4.82 | -2.02 | 7.1 | 34.4 | 65.2
[5] | 3.45 | 0.68 | 6.16 | 4.39 | 40.9
[6] | -8.45 | -9.3 | 7.7 | -10.2 | 15.7
[7] | 1.81 | -3.05 | 18.4 | 56.5 | 75.3
[8] | -11 | -10.7 | 19.5 | 58.6 | 62
[9] | 13 | 9.94 | 17.4 | 15.5 | 55.6
[10] | -1.35 | -2.24 | 7.23 | 19.8 | 61.7
[11] | 4.43 | -5.19 | 5.53 | 2.83 | 24.4
[12] | 4.88 | -18.3 | 3.45 | -12.4 | 12.5
[13] | -16.6 | -2.18 | -0.9 | 7.29 | 33.2
[14] | -10.1 | -4.3 | -0.54 | 0.15 | 27.5

Details | drug sensitivity score
[15] | 3.49
[16] | 17.5
[17] | 1.45
[18] | 7.65
[19] | 2.77
[20] | 0.11
[21] | 12.7
[22] | 13.9
[23] | 6.43
[24] | 5.75
[25] | 1.34
[26] | 0.01
[27] | 2.68
[28] | 1.15

C=CC(=O)N1CCC[C@@H](n2nc(-c3ccc(Oc4ccccc4)cc3)c3c(N)ncnc32)C1 [Ibrutinib] (max concentration tested 1000 nM)
percent inhibition of viability [%]
Details | 0.1 nM | 1 nM | 10 nM | 100 nM | 1000 nM
[1] | -2.6 | -5.62 | -10 | -0.99 | -0.93
[2] | 2.78 | 2.44 | 6.17 | 7.83 | 34.1
[3] | -4.48 | -0.1 | -1.11 | -2.87 | -8.75
[4] | 1.69 | 2.89 | 0.25 | 8.29 | 20.5
[5] | -6.77 | -1.35 | -1.82 | 0.67 | 8.69
[6] | -15.8 | -16.1 | -8.18 | 0.25 | 15.7
[7] | -1.09 | -1.95 | -0.26 | 0.88 | 15.6
[8] | -5.52 | 0.29 | 10.1 | 24.2 | 30
[9] | -11.4 | 9.91 | -7.4 | 1.24 | 8.78
[10] | -2.79 | -1.68 | -0.35 | 13.8 | 31.3
[11] | -0.62 | 9.62 | 12.7 | 12.1 | 21
[12] | -3.67 | 8.12 | 16.8 | 10 | 22.4
[13] | -6.12 | 0.44 | 7.05 | -9.76 | 10.5
[14] | -5.07 | 4.6 | -2.73 | -10.7 | -14

Details | drug sensitivity score
[15] | 0
[16] | 2.68
[17] | 0
[18] | 1.54
[19] | 0
[20] | 0.3
[21] | 0.35
[22] | 4.8
[23] | 0
[24] | 3.17
[25] | 2.44
[26] | 2.74
[27] | 0
[28] | 0

CC[C@H](Nc1ncnc2[nH]cnc12)c1nc2cccc(F)c2c(=O)n1-c1ccccc1 [Idelalisib] (max concentration tested 10000 nM)
percent inhibition of viability [%]
Details | 1 nM | 10 nM | 100 nM | 1000 nM | 10000 nM
[1] | -1.29 | -3.37 | 3.42 | 14.1 | 38.7
[2] | 0.81 | 7.45 | 12.8 | 35.1 | 66.8
[3] | -6.02 | -6.45 | -0.47 | -2.08 | 11.1
[4] | -6.15 | 4.84 | 14.3 | 12.3 | 24.5
[5] | -5.24 | 5.27 | 6.69 | 5.88 | 20.5
[6] | 7.56 | 15.2 | 42.3 | 40.1 | 54.5
[7] | -9.88 | -3.78 | 3.49 | -1.8 | 18
[8] | -12.5 | -5.82 | 11 | 18.2 | 37
[9] | -11.8 | -5.04 | 17.2 | 23.9 | 57.8
[10] | 1.69 | 6.88 | 13.7 | 12.4 | 27.4
[11] | -2.62 | 10.2 | 9.54 | 5.66 | 28.7
[12] | 1.24 | 15.1 | 10.3 | 1.19 | 46.2
[13] | -10.8 | -5.29 | 14.8 | 13.4 | 35.6
[14] | -3.21 | -0.12 | 6.64 | 10.3 | 26.2

Details | drug sensitivity score
[15] | 3.47
[16] | 8.42
[17] | 0
[18] | 2.76
[19] | 0.8
[20] | 14.8
[21] | 0.36
[22] | 3.92
[23] | 6.33
[24] | 3
[25] | 1.85
[26] | 2.55
[27] | 3.36
[28] | 1.78

— the supplement of paper PMC5908809
